# Legend:
# [1] = system: hepatic lipid accumulation; settings: 25 mg icariin/kg diet; corresponding to 4 mg/kg body weight/day; previous published studies; cited from earlier work
# hepatic steatosis [2] = assay: Liver weight after six weeks treatment in chronic high fat diet mice; type: in vivo, C57Bl/6 mice; settings: therapeutic metformin alone 1.5 g/kg diet
# From the text: (§1) Chronic high fat diet was used in C57Bl/6 mice as an experimental model of hepatic steatosis. Male C57/BL6 mice were either maintained on standard low-fat diet (control; LFD; 10% energy from fat) or placed on a high fat (HFD; 60% energy from fat, Research Diets #D12492, Research Diets, Inc, New Brunswick, N.J.) at six weeks of age to induce obesity and fatty infiltration of the liver. […] Animals were then randomized to treatments for an additional six weeks, with 10 animals per group, as specified in the following examples.
# (§2) In this study, the effects of metformin alone (therapeutic dose), subtherapeutic metformin alone, subtherapeutic leucine, and various combinations of leucine, metformin, and resveratrol on liver weight and hepatic lipid accumulation were assessed. The 1.5 g/kg diet of metformin corresponds to a therapeutically effective dose of metformin in humans. […] Likewise, the 24 g/kg dose of leucine represents a sub-therapeutic dose that was predicted to exert no significant independent effects on liver mass or hepatic steatosis. Following induction of hepatic steatosis as described in Example 1, animals were treated according to the following treatment groups as depicted in Table 21:
# (§3) In this study, the effects of metformin alone (therapeutic dose) vs. combination therapy with sub-therapeutic amounts of metformin and leucine on liver weight and hepatic lipid accumulation were assessed. Following induction of hepatic steatosis as described in Example 1, animals were treated for six weeks according to the following treatment groups as depicted in Table 22:
# hepatic steatosis [3] = assay: Histological analysis of hepatic lipid accumulation in chronic high fat diet mice; type: in vivo, C57Bl/6 mice; settings: HFD mice, six weeks
# From the text: as §1, §2, §3
# hepatic steatosis [4] = assay: Prophylactic treatment concurrent with high fat diet: liver mass and hepatic lipid accumulation; type: in vivo, C57Bl/6 mice; settings: treatment and HFD started same day, six weeks, metformin alone 1.5 g/kg diet, with or without resveratrol 12.5 mg/kg diet
# Experimental: In this study, the prophylactic effects of metformin alone, and various combinations of metformin, leucine, and resveratrol on liver mass and hepatic steatosis are assessed. C57Bl/6 mice are assigned to the following experimental groups as depicted in Table 25: Drug treatments and high fat diet feeding (as described in Example 1) are initiated on the same day and are carried out for six weeks. The effects of the treatments and diet on liver mass and hepatic lipid accumulation are assessed as described in the preceding examples. […] In this study, the prophylactic effects of metformin alone, and various combinations of metformin, HMB, and resveratrol on liver mass and hepatic steatosis are assessed. C57Bl/6 mice are assigned to the following experimental groups as depicted in Table 26: Drug treatments and high fat diet feeding (as described in Example 1) are initiated on the same day and are carried out for six weeks. The effects of the treatments and diet on liver mass and hepatic lipid accumulation are assessed as described in the preceding examples. […] In this study, the prophylactic effects of sub-therapeutic leucine alone, and co-administration of leucine and the PDE5-specific inhibitor icariin on liver mass and hepatic steatosis are assessed. […] The effects of the treatments and diet on liver mass and hepatic lipid accumulation are assessed as described in the preceding examples.
# liver triglycerides = settings: Example 3; HFD mice, six weeks; therapeutic metformin alone 1.5 g/kg diet
# From the text: as §1, §3
Compound,effect on liver mass or hepatic lipid accumulation [1],"effect on liver weight (hepatic steatosis [2]; Example 2, HFD mice, leucine 24 g/kg diet, resveratrol 12.5 mg/kg diet)","effect on liver weight (hepatic steatosis [2]; Example 3, HFD mice, p<0.02 vs. HFD, n.s. compared to LFD)","effect on liver weight (hepatic steatosis [2]; Example 4, HFD mice, p<0.03)","hepatic steatosis (histological analysis) (hepatic steatosis [3]; Example 2, metformin alone 1.5 g/kg diet, leucine 24 g/kg diet, resveratrol 12.5 mg/kg diet, combination with sub-therapeutic metformin)","hepatic steatosis (histological analysis) (hepatic steatosis [3]; Example 3, single agents at 'therapeutic dosages' (metformin 1.5 g/kg diet))","hepatic steatosis (histological analysis) (hepatic steatosis [3]; Example 4, therapeutic metformin alone 1.5 g/kg diet)","HFD-induced increase in liver mass and hepatic lipid accumulation (prophylactic) (hepatic steatosis [4]; Example 6, leucine 24 g/kg diet + metformin 0.15-0.50 g/kg diet)","HFD-induced increase in liver mass and hepatic lipid accumulation (prophylactic) (hepatic steatosis [4]; Example 7, HMB (CaHMB, 2 g/kg diet) + metformin 0.15-0.50 g/kg diet)",effect on liver triglycerides (liver triglycerides)
COc1ccc(-c2oc3c(CC=C(C)C)c(O[C@@H]4O[C@H](CO)[C@@H](O)[C@H](O)[C@H]4O)cc(O)c3c(=O)c2O[C@@H]2O[C@@H](C)[C@H](O)[C@@H](O)[C@H]2O)cc1 [icariin],no effect,–,–,–,–,–,–,–,–,–
metformin,–,partially reverse the effect of high fat diet on liver weight,reversed the effect of high fat diet on liver weight back to control levels,reversed the effect of high fat diet on liver weight back to control levels,partial reversal of the effects of HFD on hepatic steatosis,partially reversed hepatic steatosis,partially reversed hepatic steatosis,attenuates the HFD-induced increase in liver mass and hepatic lipid accumulation,attenuates the HFD-induced increase in liver mass and hepatic lipid accumulation,partially reversed the effect of high fat diet on liver triglycerides

# From patent US9872844B2, “Compositions and methods for the reduction or prevention of hepatic steatosis” (priority 2014, dated 2018)
